{"source": "patent US11572590B2", "about": "“Methods for evaluating tumor cell spheroids using 3D microfluidic cell culture device” (Dana-Farber Cancer Institute, Inc., priority 2017, dated 2023)", "test_in_all_cases": "SelectScreen Kinase Profiling, single point inhibition and IC50 for off-target kinases", "assay_type_in_all_cases": "biochemical", "key": {"[1]": {"molecular_target": "off-target kinases (Homo sapiens, UniProt Q9UK32)", "sequence (Q9UK32 whole entry)": "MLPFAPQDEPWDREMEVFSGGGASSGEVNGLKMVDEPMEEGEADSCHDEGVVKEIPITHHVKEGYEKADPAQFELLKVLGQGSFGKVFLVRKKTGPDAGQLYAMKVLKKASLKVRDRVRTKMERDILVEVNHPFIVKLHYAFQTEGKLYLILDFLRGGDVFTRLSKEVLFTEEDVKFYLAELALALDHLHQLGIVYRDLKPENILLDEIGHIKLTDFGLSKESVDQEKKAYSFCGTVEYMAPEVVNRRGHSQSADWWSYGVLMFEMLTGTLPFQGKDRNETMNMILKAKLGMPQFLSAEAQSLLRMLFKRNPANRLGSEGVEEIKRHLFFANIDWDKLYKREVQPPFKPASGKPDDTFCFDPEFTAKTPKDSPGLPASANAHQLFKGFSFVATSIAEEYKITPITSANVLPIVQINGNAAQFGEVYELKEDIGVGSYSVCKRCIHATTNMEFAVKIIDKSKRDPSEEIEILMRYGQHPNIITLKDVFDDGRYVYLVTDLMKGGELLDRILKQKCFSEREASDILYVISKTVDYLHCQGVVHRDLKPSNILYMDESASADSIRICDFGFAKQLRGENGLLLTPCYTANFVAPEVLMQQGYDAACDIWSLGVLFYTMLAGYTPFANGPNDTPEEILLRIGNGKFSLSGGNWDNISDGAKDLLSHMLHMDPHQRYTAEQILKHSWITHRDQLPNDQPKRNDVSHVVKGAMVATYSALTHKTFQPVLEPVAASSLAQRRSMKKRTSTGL", "conditions": "RPS6KA6 (RSK4), ZLYTE, ATP Km app"}, "[2]": {"molecular_target": "off-target kinases (Homo sapiens, UniProt Q5S007, G2019S)", "sequence (Q5S007 whole entry G2019S)": "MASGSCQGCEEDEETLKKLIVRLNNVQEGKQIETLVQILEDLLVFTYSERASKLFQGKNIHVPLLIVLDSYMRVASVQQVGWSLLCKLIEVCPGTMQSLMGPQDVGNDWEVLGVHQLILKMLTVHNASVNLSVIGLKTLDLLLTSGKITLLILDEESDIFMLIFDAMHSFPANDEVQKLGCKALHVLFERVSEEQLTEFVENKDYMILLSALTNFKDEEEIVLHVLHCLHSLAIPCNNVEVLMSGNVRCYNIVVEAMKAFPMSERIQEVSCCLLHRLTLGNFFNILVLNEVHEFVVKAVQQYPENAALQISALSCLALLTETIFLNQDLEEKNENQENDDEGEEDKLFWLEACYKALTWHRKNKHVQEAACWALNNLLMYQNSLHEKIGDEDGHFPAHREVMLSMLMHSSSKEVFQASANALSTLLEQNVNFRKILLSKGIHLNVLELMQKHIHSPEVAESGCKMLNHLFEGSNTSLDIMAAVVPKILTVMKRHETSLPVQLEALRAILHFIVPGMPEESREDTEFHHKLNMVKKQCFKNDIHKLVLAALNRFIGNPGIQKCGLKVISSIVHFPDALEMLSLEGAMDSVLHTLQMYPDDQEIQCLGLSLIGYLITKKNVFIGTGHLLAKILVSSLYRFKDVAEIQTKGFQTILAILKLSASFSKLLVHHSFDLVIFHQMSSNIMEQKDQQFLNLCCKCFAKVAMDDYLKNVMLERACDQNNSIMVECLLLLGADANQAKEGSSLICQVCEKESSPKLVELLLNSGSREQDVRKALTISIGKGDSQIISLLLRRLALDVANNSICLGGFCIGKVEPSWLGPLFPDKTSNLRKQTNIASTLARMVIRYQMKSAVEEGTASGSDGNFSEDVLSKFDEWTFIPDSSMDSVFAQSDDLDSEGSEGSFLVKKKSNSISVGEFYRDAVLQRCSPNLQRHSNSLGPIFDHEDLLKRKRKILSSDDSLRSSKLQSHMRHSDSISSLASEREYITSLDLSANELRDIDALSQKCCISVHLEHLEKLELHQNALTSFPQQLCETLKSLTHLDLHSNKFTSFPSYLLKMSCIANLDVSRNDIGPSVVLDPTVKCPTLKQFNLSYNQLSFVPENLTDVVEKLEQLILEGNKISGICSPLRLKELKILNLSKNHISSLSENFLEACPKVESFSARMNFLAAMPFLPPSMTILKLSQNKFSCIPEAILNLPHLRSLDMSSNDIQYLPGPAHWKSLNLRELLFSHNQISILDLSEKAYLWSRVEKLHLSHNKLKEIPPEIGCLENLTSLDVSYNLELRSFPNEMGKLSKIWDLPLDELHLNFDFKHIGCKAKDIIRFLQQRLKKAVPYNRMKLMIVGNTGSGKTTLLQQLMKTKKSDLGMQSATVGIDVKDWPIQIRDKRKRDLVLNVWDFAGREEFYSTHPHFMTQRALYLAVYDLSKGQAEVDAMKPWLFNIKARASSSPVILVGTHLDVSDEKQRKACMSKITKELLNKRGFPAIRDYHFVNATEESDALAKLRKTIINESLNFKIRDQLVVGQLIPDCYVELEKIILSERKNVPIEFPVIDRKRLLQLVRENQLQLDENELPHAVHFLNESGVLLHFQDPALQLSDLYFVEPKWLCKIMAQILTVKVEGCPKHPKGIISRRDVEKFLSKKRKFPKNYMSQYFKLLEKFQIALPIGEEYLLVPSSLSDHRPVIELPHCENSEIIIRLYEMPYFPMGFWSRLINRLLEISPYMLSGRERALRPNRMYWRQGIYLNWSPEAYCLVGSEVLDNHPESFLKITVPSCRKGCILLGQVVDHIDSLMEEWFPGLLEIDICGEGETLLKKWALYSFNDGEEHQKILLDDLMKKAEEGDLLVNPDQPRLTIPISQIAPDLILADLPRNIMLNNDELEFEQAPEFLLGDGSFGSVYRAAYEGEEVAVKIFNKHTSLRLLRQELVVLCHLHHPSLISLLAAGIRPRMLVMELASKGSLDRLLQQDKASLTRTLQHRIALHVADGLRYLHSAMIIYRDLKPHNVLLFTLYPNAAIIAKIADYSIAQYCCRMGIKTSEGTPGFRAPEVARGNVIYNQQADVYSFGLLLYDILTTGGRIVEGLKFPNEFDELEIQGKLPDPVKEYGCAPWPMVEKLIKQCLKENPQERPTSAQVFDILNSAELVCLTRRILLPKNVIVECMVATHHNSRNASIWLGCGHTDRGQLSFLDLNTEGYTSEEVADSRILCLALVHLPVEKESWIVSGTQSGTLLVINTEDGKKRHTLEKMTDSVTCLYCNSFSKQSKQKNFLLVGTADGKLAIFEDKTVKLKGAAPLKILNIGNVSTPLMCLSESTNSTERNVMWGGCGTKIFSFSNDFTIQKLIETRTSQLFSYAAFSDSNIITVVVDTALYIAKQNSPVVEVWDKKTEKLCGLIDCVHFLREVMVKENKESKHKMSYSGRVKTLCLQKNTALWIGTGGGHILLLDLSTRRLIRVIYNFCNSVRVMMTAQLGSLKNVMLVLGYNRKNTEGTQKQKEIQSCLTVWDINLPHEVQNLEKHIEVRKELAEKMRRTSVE", "conditions": "ATP Km app, Adapta"}, "[3]": {"molecular_target": "T1, off-target kinases (Homo sapiens, UniProt Q13976)", "T1 sequence (Q13976 1-671)": "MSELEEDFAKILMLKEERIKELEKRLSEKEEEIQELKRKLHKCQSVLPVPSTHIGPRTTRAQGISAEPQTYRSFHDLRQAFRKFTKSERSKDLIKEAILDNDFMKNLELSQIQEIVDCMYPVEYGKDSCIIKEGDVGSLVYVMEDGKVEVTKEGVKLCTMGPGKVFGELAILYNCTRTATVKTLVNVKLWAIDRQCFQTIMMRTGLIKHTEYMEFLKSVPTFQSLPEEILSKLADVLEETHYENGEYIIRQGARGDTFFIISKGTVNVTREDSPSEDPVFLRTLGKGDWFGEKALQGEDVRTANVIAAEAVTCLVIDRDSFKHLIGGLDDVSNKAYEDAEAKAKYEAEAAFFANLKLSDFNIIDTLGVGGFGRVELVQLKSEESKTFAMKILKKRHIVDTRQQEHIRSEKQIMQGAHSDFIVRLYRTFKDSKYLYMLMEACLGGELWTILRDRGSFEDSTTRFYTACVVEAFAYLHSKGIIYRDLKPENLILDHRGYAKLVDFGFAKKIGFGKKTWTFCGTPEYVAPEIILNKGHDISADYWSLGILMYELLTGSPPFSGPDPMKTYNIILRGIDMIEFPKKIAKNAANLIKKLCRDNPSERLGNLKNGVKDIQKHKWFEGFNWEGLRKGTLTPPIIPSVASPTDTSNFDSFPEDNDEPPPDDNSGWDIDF", "conditions": "PRKG1, ZLYTE, ATP Km app"}, "[4]": {"molecular_target": "T2, off-target kinases (Homo sapiens, UniProt Q8TDC3)", "T2 sequence (Q8TDC3 1-778)": "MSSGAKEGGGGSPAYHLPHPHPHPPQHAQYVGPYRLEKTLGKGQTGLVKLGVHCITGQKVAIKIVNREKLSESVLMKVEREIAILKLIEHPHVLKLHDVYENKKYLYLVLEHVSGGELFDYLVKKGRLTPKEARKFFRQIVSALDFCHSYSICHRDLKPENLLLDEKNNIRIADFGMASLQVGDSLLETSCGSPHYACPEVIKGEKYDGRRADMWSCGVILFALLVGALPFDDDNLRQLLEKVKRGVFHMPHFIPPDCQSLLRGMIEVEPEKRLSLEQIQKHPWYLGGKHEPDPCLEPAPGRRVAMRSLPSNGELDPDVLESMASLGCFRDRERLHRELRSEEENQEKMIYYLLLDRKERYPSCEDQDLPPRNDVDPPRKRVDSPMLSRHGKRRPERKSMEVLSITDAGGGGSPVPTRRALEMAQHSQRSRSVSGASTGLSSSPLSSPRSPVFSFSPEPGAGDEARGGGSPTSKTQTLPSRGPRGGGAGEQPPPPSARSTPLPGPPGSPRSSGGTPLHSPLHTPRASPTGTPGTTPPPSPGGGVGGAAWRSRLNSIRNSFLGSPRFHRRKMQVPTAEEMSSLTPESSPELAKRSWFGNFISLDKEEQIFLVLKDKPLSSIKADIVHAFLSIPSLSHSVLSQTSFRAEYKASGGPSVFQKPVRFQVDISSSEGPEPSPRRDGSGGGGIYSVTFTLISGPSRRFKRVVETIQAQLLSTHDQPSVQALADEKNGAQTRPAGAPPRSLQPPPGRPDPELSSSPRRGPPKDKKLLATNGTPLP", "conditions": "BRSK1 (SAD1), ATP Km app, ZLYTE"}, "[5]": {"molecular_target": "off-target kinases (Homo sapiens, UniProt O00506)", "sequence (O00506 whole entry)": "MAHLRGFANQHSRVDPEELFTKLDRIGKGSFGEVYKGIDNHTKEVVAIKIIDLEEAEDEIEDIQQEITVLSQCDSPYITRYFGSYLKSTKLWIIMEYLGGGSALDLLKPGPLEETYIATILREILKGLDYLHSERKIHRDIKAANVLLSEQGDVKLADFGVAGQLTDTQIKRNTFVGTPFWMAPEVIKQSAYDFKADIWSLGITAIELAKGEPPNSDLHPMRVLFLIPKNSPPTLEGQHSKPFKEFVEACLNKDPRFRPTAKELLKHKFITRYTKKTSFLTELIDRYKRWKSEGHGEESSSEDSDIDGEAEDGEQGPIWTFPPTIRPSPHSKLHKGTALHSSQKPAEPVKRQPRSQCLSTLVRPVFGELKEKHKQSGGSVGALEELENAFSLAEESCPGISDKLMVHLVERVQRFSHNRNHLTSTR", "conditions": "STK25 (YSK1), ZLYTE, ATP Km app"}}, "note": "Where two headings read alike, the source gives them in different places."}
{"smiles": "N#Cc1cc(-c2ncnc(Nc3ccc(N4CCN(C5COC5)CC4)cc3)n2)ccc1OC1CCOCC1", "note": "[Compound 1, 5-(4-((4-(4-(oxetan-3-yl)piperazin-1-yl)phenyl)amino)-1,3,5-triazin-2-yl)-2-((tetrahydro-2H-pyran-4-yl)oxy)benzonitrile]", "values": [{"measurement": "inhibition", "setting": "[1]; read-out: % Inhibition 1", "result": 14, "unit": "%"}, {"measurement": "inhibition", "setting": "[1]; read-out: % Inhibition 2", "result": 17, "unit": "%"}, {"measurement": "inhibition", "setting": "[1]; read-out: % Inhibition Avg", "result": 16, "unit": "%"}, {"measurement": "inhibition", "setting": "[2]; LRRK2 G2019S FL, read-out: % Inhibition 1", "result": 100, "unit": "%"}, {"measurement": "inhibition", "setting": "[2]; LRRK2 G2019S FL, read-out: % Inhibition 2", "result": 99, "unit": "%"}, {"measurement": "inhibition", "setting": "[2]; LRRK2 G2019S FL, read-out: % Inhibition Avg", "result": 99, "unit": "%"}, {"measurement": "inhibition", "setting": "[2]; LRRK2 G2019S, read-out: % Inhibition 1", "result": 99, "unit": "%"}, {"measurement": "inhibition", "setting": "[2]; LRRK2 G2019S, read-out: % Inhibition 2", "result": 100, "unit": "%"}, {"measurement": "inhibition", "setting": "[2]; LRRK2 G2019S, read-out: % Inhibition Avg", "result": 100, "unit": "%"}, {"measurement": "inhibition", "setting": "[3]; read-out: % Inhibition 1", "result": 2, "unit": "%"}, {"measurement": "inhibition", "setting": "[3]; read-out: % Inhibition 2", "result": 5, "unit": "%"}, {"measurement": "inhibition", "setting": "[3]; read-out: % Inhibition Avg", "result": 3, "unit": "%"}, {"measurement": "inhibition", "setting": "[4]; read-out: % Inhibition 1", "result": 92, "unit": "%"}, {"measurement": "inhibition", "setting": "[4]; read-out: % Inhibition 2", "result": 89, "unit": "%"}, {"measurement": "inhibition", "setting": "[4]; read-out: % Inhibition Avg", "result": 90, "unit": "%"}, {"measurement": "inhibition", "setting": "[5]; read-out: % Inhibition 1", "result": 0, "unit": "%"}, {"measurement": "inhibition", "setting": "[5]; read-out: % Inhibition 2", "result": -4, "unit": "%"}, {"measurement": "inhibition", "setting": "[5]; read-out: % Inhibition Avg", "result": -2, "unit": "%"}]}
